US12409171B2, “Pharmaceutically active pyrazolo-pyridone modulators of DCN1/2-mediated cullin neddylation” (UNIVERSITY OF KENTUCKY RESEARCH FOUNDATION, priority 2019, dated 2025)

Target: DCN1 (Homo sapiens (Human), UniProt Q96GG9)
Test: TR-FRET binding assay (biotin-DCN1 / Ac-UBE2M12-AlexaFluor488)
Details: mean ± SD (n); read-out: DCN1_TRFRET Mean EC50
Procedure, shortened: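 Biotinylated DCN1 binding to Ac-UBE2M12-AlexaFluor488 read by TR-FRET; assay cocktail pre-incubated 1 h at room temperature before compounds added from DMSO stocks by pin transfer. IC50 is the mean of three replicates ± SD; compounds tested in triplicate or more.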

Chain of DCN1 (Q96GG9 whole entry): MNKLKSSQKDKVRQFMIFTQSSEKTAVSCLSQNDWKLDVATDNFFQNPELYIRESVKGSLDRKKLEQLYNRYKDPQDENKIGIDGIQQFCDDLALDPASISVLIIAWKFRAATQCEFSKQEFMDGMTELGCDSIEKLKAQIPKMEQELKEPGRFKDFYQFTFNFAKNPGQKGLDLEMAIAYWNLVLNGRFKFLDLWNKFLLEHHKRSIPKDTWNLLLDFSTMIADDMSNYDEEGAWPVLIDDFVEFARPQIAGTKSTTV

SMILES	EC50 [µM]
CCCN1C(=O)[C@@H](N(CCC)C(=O)c2cccc(C(F)(F)F)c2)[C@@H](c2ccc(F)cc2)c2c(C)nn(-c3ccccc3)c21 [RG-0009516, N-[(4S,5S)-4-(4-fluorophenyl)-3-methyl-6-oxo-1-phenyl-7-propyl-1H,4H,5H,6H,7H-pyrazolo[3,4-b]pyridin-5-yl]-N-propyl-3-(trifluoromethyl)benzamide]	> 36.5
Cc1nn(-c2ccccc2)c2c1[C@H](c1ccc(F)cc1)[C@H](NC(=O)c1cccc(C(F)(F)F)c1)C(=O)N2C1CCC1 [RG-0013050, N-[(4S,5S)-7-cyclobutyl-4-(4-fluorophenyl)-3-methyl-6-oxo-1-phenyl-1H,4H,5H,6H,7H-pyrazolo[3,4-b]pyridin-5-yl]-3-(trifluoromethyl)benzamide]	2.58 ± 0.247
CC(=O)CN1C(=O)[C@@H](NC(=O)c2cccc(C)c2)[C@@H](c2ccc(F)cc2)c2c(C)nn(-c3ccccc3)c21 [RG-0009508, N-[(4S,5S)-4-(4-fluorophenyl)-3-methyl-6-oxo-7-(2-oxopropyl)-1-phenyl-1H,4H,5H,6H,7H-pyrazolo[3,4-b]pyridin-5-yl]-3-methylbenzamide]	7.05 ± 1.67
CCN1C(=O)[C@@H](NC(=O)c2cccc(F)c2)[C@@H](c2ccc(F)cc2)c2c(C)nn(-c3ccccc3)c21 [RG-0013062, N-[(4S,5S)-7-ethyl-4-(4-fluorophenyl)-3-methyl-6-oxo-1-phenyl-1H,4H,5H,6H,7H-pyrazolo[3,4-b]pyridin-5-yl]-3-fluorobenzamide]	1.81 ± 0.153
Cc1nn(-c2ccccc2)c2c1[C@H](c1ccc(F)cc1)[C@H](NC(=O)c1cccc(C(F)(F)F)c1)C(=O)N2C [RG-0008885, N-[(4S,5S)-4-(4-fluorophenyl)-3,7-dimethyl-6-oxo-1-phenyl-1H,4H,5H,6H,7H-pyrazolo[3,4-b]pyridin-5-yl]-3-(trifluoromethyl)benzamide]	0.943 ± 0.0863
CCN1C(=O)[C@@H](NC(=O)c2cccc(Br)c2)[C@@H](c2ccc(F)cc2)c2c(C)nn(-c3ccccc3)c21 [RG-0013061, 3-bromo-N-[(4S,5S)-7-ethyl-4-(4-fluorophenyl)-3-methyl-6-oxo-1-phenyl-1H,4H,5H,6H,7H-pyrazolo[3,4-b]pyridin-5-yl]benzamide]	0.485 ± 0.0411
COCN1C(=O)[C@@H](NC(=O)c2cccc(C)c2)[C@@H](c2ccc(F)cc2)c2c(C)nn(-c3ccccc3)c21 [RG-0008859, N-[(4S,5S)-4-(4-fluorophenyl)-7-(methoxymethyl)-3-methyl-6-oxo-1-phenyl-1H,4H,5H,6H,7H-pyrazolo[3,4-b]pyridin-5-yl]-3-methylbenzamide]	0.491 ± 0.0255
CCN1C(=O)[C@@H](NC(=O)c2cccc(C(F)(F)F)c2)[C@@H](c2ccc(F)c(C(F)(F)F)c2)c2c(C)nn(-c3ccccc3)c21 [RG-0013990, N-[(4S,5S)-7-ethyl-4-[4-fluoro-3-(trifluoromethyl)phenyl]-3-methyl-6-oxo-1-phenyl-1H,4H,5H,6H,7H-pyrazolo[3,4-b]pyridin-5-yl]-3-(trifluoromethyl)benzamide]	4.81 ± 0.152
CCN1C(=O)[C@@H](NC(=O)c2cccc(C(F)(F)F)c2)[C@@H](c2ccc(F)cc2)c2c(CNC(=O)CCOCCOCCNC(=O)CCCC[C@@H]3SC[C@@H]4NC(=O)N[C@@H]43)nn(-c3ccccc3)c21 [RG-0014159, N-[(4S,5S)-3-({3-[2-(2-{5-[(3aS,4S,6aR)-2-oxo-hexahydro-1H-thieno[3,4-d]imidazol-4-yl]pentanamido}ethoxy)ethoxy]propanamido}methyl)-7-ethyl-4-(4-fluorophenyl)-6-oxo-1-phenyl-1H,4H,5H,6H,7H-pyrazolo[3,4-b]pyridin-5-yl]-3-(trifluoromethyl)benzamide]	0.0896 ± 0.0109
CCN1C(=O)[C@@H](N)[C@@H](c2ccc(F)cc2)c2c(C)nn(-c3ccccc3)c21 [RG-0013837, (4S,5S)-5-amino-7-ethyl-4-(4-fluorophenyl)-3-methyl-1-phenyl-1H,4H,5H,6H,7H-pyrazolo[3,4-b]pyridin-6-one]	> 36.5
Cc1nn(-c2ccccc2)c2c1[C@H](c1ccc(F)cc1)[C@H](NC(=O)c1cccc(C(F)(F)F)c1)C(=O)N2CCO[Si](C)(C)C(C)(C)C [RG-0014164, N-[(4S,5S)-7-{2-[(tert-butyldimethylsilyl)oxy]ethyl}-4-(4-fluorophenyl)-3-methyl-6-oxo-1-phenyl-1H,4H,5H,6H,7H-pyrazolo[3,4-b]pyridin-5-yl]-3-(trifluoromethyl)benzamide]	> 36.5
CC(=O)N1C(=O)[C@@H](NC(=O)c2cccc(C)c2)[C@@H](c2ccc(F)cc2)c2c(C)nn(-c3ccccc3)c21 [RG-0005656, N-[(4S,5S)-7-acetyl-4-(4-fluorophenyl)-3-methyl-6-oxo-1-phenyl-1H,4H,5H,6H,7H-pyrazolo[3,4-b]pyridin-5-yl]-3-methylbenzamide]	5.64 ± 0.827
CCN1C(=O)[C@@H](NC(=O)c2cccc(C(F)(F)F)c2)[C@@H](c2ccc(F)cc2)c2c(CNCCN)nn(-c3ccccc3)c21 [RG-0014149, N-[(4S,5S)-3-{[(2-aminoethyl)amino]methyl}-7-ethyl-4-(4-fluorophenyl)-6-oxo-1-phenyl-1H,4H,5H,6H,7H-pyrazolo[3,4-b]pyridin-5-yl]-3-(trifluoromethyl)benzamide]	0.126 ± 0.0121
Cc1nn(-c2ccccc2)c2c1[C@H](c1ccc(F)cc1)[C@H](NC(=O)c1cccc(C(F)(F)F)c1)C(=O)N2CO [RG-0013981, N-[(4S,5S)-4-(4-fluorophenyl)-7-(hydroxymethyl)-3-methyl-6-oxo-1-phenyl-1H,4H,5H,6H,7H-pyrazolo[3,4-b]pyridin-5-yl]-3-(trifluoromethyl)benzamide]	> 36.5
CCN1C(=O)[C@@H](NC(=O)c2cccc(C(F)(F)F)c2)[C@@H](c2ccc(F)cc2)c2c(CNS(=O)(=O)NC(=O)OC(C)(C)C)nn(-c3ccccc3)c21 [RG-0014160, tert-butyl N-({[(4S,5S)-7-ethyl-4-(4-fluorophenyl)-6-oxo-1-phenyl-5-[3-(trifluoromethyl)benzamido]-1H,4H,5H,6H,7H-pyrazolo[3,4-b]pyridin-3-yl]methyl}sulfamoyl)carbamate]	0.194 ± 0.0199
CCN1C(=O)[C@@H](NC(=O)c2cccc(Oc3ccccc3)c2)[C@@H](c2ccc(F)cc2)c2c(C)nn(-c3ccccc3)c21 [RG-0013976, N-[(4S,5S)-7-ethyl-4-(4-fluorophenyl)-3-methyl-6-oxo-1-phenyl-1H,4H,5H,6H,7H-pyrazolo[3,4-b]pyridin-5-yl]-3-phenoxybenzamide]	5.93 ± 0.606
CCN1C(=O)[C@@H](NC(=O)c2cccc(C(F)(F)F)c2)[C@@H](c2ccc(F)cc2)c2c(CN(C)C)nn(-c3ccccc3)c21 [RG-0014053, N-[(4S,5S)-3-[(dimethylamino)methyl]-7-ethyl-4-(4-fluorophenyl)-6-oxo-1-phenyl-1H,4H,5H,6H,7H-pyrazolo[3,4-b]pyridin-5-yl]-3-(trifluoromethyl)benzamide]	0.0907 ± 0.00438
CCN1C(=O)[C@@H](NC(=O)c2cccc(C)c2)[C@@H](C(C)C)c2c(C)nn(-c3ccccc3)c21 [RG-0008876, N-[(4S,5S)-7-ethyl-3-methyl-6-oxo-1-phenyl-4-(propan-2-yl)-1H,4H,5H,6H,7H-pyrazolo[3,4-b]pyridin-5-yl]-3-methylbenzamide]	1.75 ± 0.165
CCN1C(=O)[C@@H](NC(=O)c2cccc(-c3ccccc3)c2)[C@@H](c2ccc(F)cc2)c2c(C)nn(-c3ccccc3)c21 [RG-0013978, N-[(4S,5S)-7-ethyl-4-(4-fluorophenyl)-3-methyl-6-oxo-1-phenyl-1H,4H,5H,6H,7H-pyrazolo[3,4-b]pyridin-5-yl]-[1,1′-biphenyl]-3-carboxamide]	1.31 ± 0.0973
CCN1C(=O)[C@@H](NC(=O)c2cccc(C(F)(F)F)c2)[C@@H](c2ccc(F)c(OC)c2)c2c(C)nn(-c3ccccc3)c21 [RG-0013996, N-[(4S,5S)-7-ethyl-4-(4-fluoro-3-methoxyphenyl)-3-methyl-6-oxo-1-phenyl-1H,4H,5H,6H,7H-pyrazolo[3,4-b]pyridin-5-yl]-3-(trifluoromethyl)benzamide]	1.27 ± 0.047
CCCN1C(=O)[C@@H](NC(=O)c2cccc(C)c2)[C@@H](c2ccc(F)cc2)c2c(C)nn(CCC)c21 [RG-0008666, N-[(4S,5S)-4-(4-fluorophenyl)-3-methyl-6-oxo-1,7-dipropyl-1H,4H,5H,6H,7H-pyrazolo[3,4-b]pyridin-5-yl]-3-methylbenzamide]	1.17 ± 0.0993
CCN1C(=O)[C@@H](NC(=O)c2cccc(C(C)C)c2)[C@@H](c2ccc(F)cc2)c2c(C)nn(-c3ccccc3)c21 [RG-0014166, N-[(4S,5S)-7-ethyl-4-(4-fluorophenyl)-3-methyl-6-oxo-1-phenyl-1H,4H,5H,6H,7H-pyrazolo[3,4-b]pyridin-5-yl]-3-(propan-2-yl)benzamide]	0.473 ± 0.0707
CCOC(=O)Cn1nc(C)c2c1N(CC)C(=O)[C@@H](NC(=O)c1cccc(C(F)(F)F)c1)[C@H]2c1ccc(F)cc1 [RG-0014038, ethyl 2-[(4S,5S)-7-ethyl-4-(4-fluorophenyl)-3-methyl-6-oxo-5-[3-(trifluoromethyl)benzamido]-1H,4H,5H,6H,7H-pyrazolo[3,4-b]pyridin-1-yl]acetate]	3.53 ± 0.458
CCN1C(=O)[C@@H](NC(=O)c2cccc(C(F)(F)F)c2)[C@@H](c2ccc(F)cc2)c2c(CBr)nn(-c3ccccc3)c21 [RG-0014144, N-[(4S,5S)-3-(bromomethyl)-7-ethyl-4-(4-fluorophenyl)-6-oxo-1-phenyl-1H,4H,5H,6H,7H-pyrazolo[3,4-b]pyridin-5-yl]-3-(trifluoromethyl)benzamide]	0.186 ± 0.0326
CCN1C(=O)[C@@H](NC(=O)c2cccc(C)c2F)[C@@H](c2ccc(F)cc2)c2c(C)nn(-c3ccccc3)c21 [RG-0014165, N-[(4S,5S)-7-ethyl-4-(4-fluorophenyl)-3-methyl-6-oxo-1-phenyl-1H,4H,5H,6H,7H-pyrazolo[3,4-b]pyridin-5-yl]-2-fluoro-3-methylbenzamide]	0.541 ± 0.0681
C#CCOCc1nn(-c2ccccc2)c2c1[C@H](c1ccc(F)cc1)[C@H](NC(=O)c1cccc(C)c1)C(=O)N2CC [RG-0013055, N-[(4S,5S)-7-ethyl-4-(4-fluorophenyl)-6-oxo-1-phenyl-3-[(prop-2-yn-1-yloxy)methyl]-1H,4H,5H,6H,7H-pyrazolo[3,4-b]pyridin-5-yl]-3-methylbenzamide]	0.168 ± 0.0081
